In patent publication US7491721B2, “Antimycobacterial pharmaceutical composition” (priority 2004, dated 2009):

What was measured:
[1] = test system: sensitive strain of MTB; test: Murine model of pulmonary tuberculosis, mice infected with sensitive strain; type: in vivo, Mycobacterium tuberculosis; settings: for dose giving 2 log reduction in the organs: animals infected with sensitive strain
[2] = Acute toxicity by oral route in rats; settings: rat, in vivo
Method: (§1) Acute toxicity of the compound of formula (I) was determined in rodents by oral route.

[3] = Pharmacokinetics of the combination with rifampicin and pyrazinamide in mice; settings: mouse, in vivo, po; for half-life: T½
[4] = in vivo; settings: dog, po, 12.5 mg
Method: (§2) Preliminary Pharmacokinetics studies of the compound of formula (I) was performed in mice and dog to determine bioavailibility and serum levels achieved and maintained by the compounds.

[5] = test system: bacterial strains used in the Ames Mutagenicity test; test: Ames Mutagenicity test; type: cell-based; settings: all the bacterial strains used
[6] = Acute toxicity by oral route in mice; settings: mouse, in vivo
Method: as §1

[7] = in vivo; settings: mouse, po, 25 mg/kg
[8] = Preliminary pharmacokinetics of compound of formula (I) in mice; settings: mouse, in vivo
Method: as §2

[9] = Preliminary pharmacokinetics of compound of formula (I) in dog; settings: serum, 12.5 mg
Method: as §2

[10] = combination study, one month, doses mg/kg: (I) 25.0 where present, INH 25.0, RIF 20.0, PYR 150.0, ETH 100.0
[11] = combination study, three months, doses mg/kg: (I) 25.0 where present, INH 25.0, RIF 20.0, PYR 150.0, ETH 100.0
[12] = combination study, two months, doses mg/kg: (I) 25.0 where present, INH 25.0, RIF 20.0, PYR 150.0, ETH 100.0
[13] = monotherapy 12.5 mg/kg, 8 Weeks Treatment (two months)
[14] = monotherapy 12.5 mg/kg, 12 Weeks Treatment (three months)
[15] = monotherapy 12.5 mg/kg, one month of treatment
[16] = monotherapy 25 mg/kg, 8 Weeks Treatment (two months)
[17] = monotherapy 25 mg/kg, 12 Weeks Treatment (three months)
[18] = monotherapy 25 mg/kg, one month of treatment
[19] = monotherapy 50 mg/kg, 8 Weeks Treatment (two months)
[20] = monotherapy 50 mg/kg, 12 Weeks Treatment (three months)
[21] = monotherapy 50 mg/kg, one month of treatment
[22] = 12.5 mg/kg, (I) alone 12.5 mg/kg
[23] = given together: (I) 12.5 + RIF 20.0 + PYR 150.0 mg/kg
[24] = given together without (I): RIF 20.0 + PYR 150.0 mg/kg

For `Cc1c(CN2CCN(c3cccc(C(F)(F)F)c3)CC2)cc(-c2ccccc2)n1NC(=O)c1ccncc1` [Compound of formula (I)], the “dose giving 2 log reduction in the organs” value [1] was 12.5 mg/kg, the “Mean Log10CFU in organs of mice infected with sensitive strain of MTB, Lung” value (from here on “Mean Log10CFU in organs of mice infected … Lung”) [1, 10] was 3.11 ± 0.38 Log10CFU and the “Mean Log10CFU in organs of mice infected with sensitive strain of MTB, Spleen” value (“Mean Log10CFU in organs … Spleen” below) [1, 10] was 2.42 ± 0.4 Log10CFU. For the same molecule, the “Mean Log10CFU in organs of mice infected … Lung” value [1, 11] was 0.82 ± 0.91 Log10CFU, the “Mean Log10CFU in organs … Spleen” value [1, 11] was 1.09 ± 0.83 Log10CFU and the “Mean Log10CFU in organs of mice infected … Lung” value [1, 12] was 1.86 ± 0.94 Log10CFU. For the same molecule, the “Mean Log10CFU in organs … Spleen” value [1, 12] was 2.60 ± 0.45 Log10CFU, the “Mean Log10CFU in organs of mice infected … Lung” value [1, 13] was 3.44 ± 0.69 Log10CFU and the “Mean Log10CFU in organs … Spleen” value [1, 13] was 2.75 ± 0.63 Log10CFU. For the same molecule, the “Mean Log10CFU in organs of mice infected … Lung” value [1, 14] was 2.76 ± 0.53 Log10CFU, the “Mean Log10CFU in organs … Spleen” value [1, 14] was 2.68 ± 0.27 Log10CFU and the “Mean Log10CFU in organs of mice infected … Lung” value [1, 15] was 2.5 ± 0.35 Log10CFU. For the same molecule, the “Mean Log10CFU in organs … Spleen” value [1, 15] was 2.89 ± 0.32 Log10CFU, the “Mean Log10CFU in organs of mice infected … Lung” value [1, 16] was 2.89 ± 0.73 Log10CFU and the “Mean Log10CFU in organs … Spleen” value [1, 16] was 2.37 ± 0.68 Log10CFU. The “Mean Log10CFU in organs of mice infected … Lung” value [1, 17] was 1.71 ± 1.24 Log10CFU, the “Mean Log10CFU in organs … Spleen” value [1, 17] was 1.63 ± 0.98 Log10CFU and the “Mean Log10CFU in organs of mice infected … Lung” value [1, 18] was 2.3 ± 0.63 Log10CFU. For the same molecule, the “Mean Log10CFU in organs … Spleen” value [1, 18] was 2.42 ± 0.15 Log10CFU, the “Mean Log10CFU in organs of mice infected … Lung” value [1, 19] was 2.20 ± 0.56 Log10CFU and the “Mean Log10CFU in organs … Spleen” value [1, 19] was 2.17 ± 0.46 Log10CFU. For the same molecule, the “Mean Log10CFU in organs of mice infected … Lung” value [1, 20] was 1.46 ± 1.06 Log10CFU, the “Mean Log10CFU in organs … Spleen” value [1, 20] was 1.56 ± 1.12 Log10CFU and the “Mean Log10CFU in organs of mice infected … Lung” value [1, 21] was 2.1 ± 0.36 Log10CFU. The “Mean Log10CFU in organs … Spleen” value [1, 21] was 2.28 ± 0.38 Log10CFU, the LD50 [2] was 793 mg/kg and the AUC [3, 22] was 2210 ng·h/mL. For the same molecule, the Cmax [3, 22] was 660 ng/mL, the Tmax [3, 22] was 1.5 h and the half-life [3, 22] was 5.34 h. It also gave an AUC [3, 23] of 36500 ng·h/mL, a Cmax [3, 23] of 7580 ng/mL and a Tmax [3, 23] of 2.12 h. The half-life [3, 23] was 6.73 h, the half-life [4] was 5.07 h and the “mutagenicity in the Ames Mutagenicity test” value [5] was “non mutagenic”. The LD50 [6] was 700 mg/kg, the AUC [7] was 6880 ng·h/mL and the Cmax [7] was 2680 ng/mL. It also gave a Tmax [7] of 2 h, a half-life [7] of 3.41 h and an AUC(0-t) ([8]; po, 25 mg) of 6880 ng·h/mL. It also gave a Cmax ([8]; po, 25 mg) of 2680 ng/mL, a Tmax ([8]; po, 25 mg) of 2 h and a half-life ([8]; po, 25 mg) of 3.41 h. It also gave an AUC(0-t) ([8]; Mice, 12.5 mg (Oral), read-out: AUClast) of 2210 ng·h/mL, a Cmax ([8]; Mice, 12.5 mg (Oral), read-out: Cmax) of 660 ng/mL and a half-life ([8]; Mice, 12.5 mg (Oral), read-out: T1/2 (converted)) of 5.34 h. It also gave a Tmax ([8]; Mice, 12.5 mg (Oral), read-out: Tmax) of 1.5 h, an AUC(0-t) ([9]; iv) of 20000 ng·h/mL and a Cmax ([9]; iv) of 8650 ng/mL. For the same molecule, the Tmax ([9]; iv) was 3.48 h, the AUC(0-t) ([9]; po) was 10600 ng·h/mL and the Cmax ([9]; po) was 3380 ng/mL. The Tmax ([9]; po) was 0.75 h and the bioavailability ([9]; po) was 56.4%.
In the case of `NNC(=O)c1ccncc1` [Isoniazid], the “dose giving 2 log reduction in the organs” value [1] is reported as ≥ 25 mg/kg, the “Mean Log10CFU in organs of mice infected … Lung” value [1, 10] is reported as 3.20 ± 0.45 Log10CFU and the “Mean Log10CFU in organs … Spleen” value [1, 10] is reported as 2.78 ± 0.30 Log10CFU. The “Mean Log10CFU in organs of mice infected … Lung” value [1, 11] was 1.20 ± 0.98 Log10CFU, the “Mean Log10CFU in organs … Spleen” value [1, 11] was 1.35 ± 1.09 Log10CFU and the “Mean Log10CFU in organs of mice infected … Lung” value [1, 12] was 1.91 ± 0.9 Log10CFU. The “Mean Log10CFU in organs … Spleen” value [1, 12] was 2.43 ± 0.39 Log10CFU, the “Mean Log10CFU in organs of mice infected … Lung” value [1, 13] was 3.9 ± 0.45 Log10CFU and the “Mean Log10CFU in organs … Spleen” value [1, 13] was 3.73 ± 0.52 Log10CFU. For the same molecule, the “Mean Log10CFU in organs of mice infected … Lung” value [1, 14] was 3.94 ± 0.28 Log10CFU, the “Mean Log10CFU in organs … Spleen” value [1, 14] was 3.9 ± 0.37 Log10CFU and the “Mean Log10CFU in organs of mice infected … Lung” value [1, 15] was 4.56 ± 0.24 Log10CFU. For the same molecule, the “Mean Log10CFU in organs … Spleen” value [1, 15] was 4.93 ± 0.42 Log10CFU, the “Mean Log10CFU in organs of mice infected … Lung” value [1, 16] was 3.01 ± 0.68 Log10CFU and the “Mean Log10CFU in organs … Spleen” value [1, 16] was 2.68 ± 0.89 Log10CFU. The “Mean Log10CFU in organs of mice infected … Lung” value [1, 17] was 3.06 ± 0.83 Log10CFU, the “Mean Log10CFU in organs … Spleen” value [1, 17] was 2.41 ± 0.69 Log10CFU and the “Mean Log10CFU in organs of mice infected … Lung” value [1, 18] was 3.19 ± 0.6 Log10CFU. For the same molecule, the “Mean Log10CFU in organs … Spleen” value [1, 18] was 3.08 ± 0.44 Log10CFU, the “Mean Log10CFU in organs of mice infected … Lung” value [1, 19] was 2.45 ± 0.60 Log10CFU and the “Mean Log10CFU in organs … Spleen” value [1, 19] was 2.30 ± 0.38 Log10CFU. For the same molecule, the “Mean Log10CFU in organs of mice infected … Lung” value [1, 20] was 2.07 ± 0.33 Log10CFU, the “Mean Log10CFU in organs … Spleen” value [1, 20] was 2.68 ± 0.36 Log10CFU and the “Mean Log10CFU in organs of mice infected … Lung” value [1, 21] was 2.97 ± 0.46 Log10CFU. The “Mean Log10CFU in organs … Spleen” value [1, 21] was 2.89 ± 0.27 Log10CFU.
With `NC(=O)c1cnccn1` [PYR, Pyrazinamide] the AUC [3, 24] was 649000 ng·h/mL, the AUC [3, 23] was 477000 ng·h/mL and the Cmax [3, 24] was 138000 ng/mL. The Cmax [3, 23] was 146000 ng/mL, the Tmax [3, 24] was 1.5 h and the Tmax [3, 23] was 1 h. The half-life [3, 24] was 2.09 h and the half-life [3, 23] was 2.05 h.
With `CO[C@H]1/C=C/O[C@@]2(C)Oc3c(C)c(O)c4c(O)c(c(/C=N/N5CCN(C)CC5)c(O)c4c3C2=O)NC(=O)/C(C)=C\C=C\[C@H](C)[C@H](O)[C@@H](C)[C@@H](O)[C@@H](C)[C@H](OC(C)=O)[C@@H]1C` [Rifampicin] the “Mean Log10CFU in organs of mice infected … Lung” value [1, 10] was 2.75 ± 0.36 Log10CFU, the “Mean Log10CFU in organs … Spleen” value [1, 10] was 2.78 ± 0.42 Log10CFU and the “Mean Log10CFU in organs of mice infected … Lung” value [1, 11] was 0.84 ± 1.10 Log10CFU. For the same molecule, the “Mean Log10CFU in organs … Spleen” value [1, 11] was 1.21 ± 0.83 Log10CFU, the “Mean Log10CFU in organs of mice infected … Lung” value [1, 12] was 1.84 ± 0.95 Log10CFU and the “Mean Log10CFU in organs … Spleen” value [1, 12] was 2.40 ± 0.7 Log10CFU. The AUC [3, 24] was 148000 ng·h/mL, the AUC [3, 23] was 195000 ng·h/mL and the Cmax [3, 24] was 15200 ng/mL. It also gave a Cmax [3, 23] of 19300 ng/mL, a Tmax [3, 24] of 2.3 h and a Tmax [3, 23] of 3.25 h.
